Consider 5 molecules from article PMC5540273, “Progress towards a public chemogenomic set for protein kinases and a call for contributions” (PLoS ONE, 2017).

Experiment [1] concerns the target CSNK1A1 (Homo sapiens, UniProt P48729). The experiment can be described thus: KINOMEscan competition binding. The note with it: read-out: %Inh CSNK1A1.
For experiment [2], the target named is CSNK2A1 (Homo sapiens, UniProt P68400). The experiment can be described thus: KINOMEscan competition binding. The note with it: read-out: %Inh CSNK2A1.
In experiment [3] the target is BRAF (Homo sapiens, UniProt P15056). Kind of experiment: KINOMEscan competition binding. To be noted: read-out: %Inh BRAF.
Sequence of BRAF (P15056 whole entry): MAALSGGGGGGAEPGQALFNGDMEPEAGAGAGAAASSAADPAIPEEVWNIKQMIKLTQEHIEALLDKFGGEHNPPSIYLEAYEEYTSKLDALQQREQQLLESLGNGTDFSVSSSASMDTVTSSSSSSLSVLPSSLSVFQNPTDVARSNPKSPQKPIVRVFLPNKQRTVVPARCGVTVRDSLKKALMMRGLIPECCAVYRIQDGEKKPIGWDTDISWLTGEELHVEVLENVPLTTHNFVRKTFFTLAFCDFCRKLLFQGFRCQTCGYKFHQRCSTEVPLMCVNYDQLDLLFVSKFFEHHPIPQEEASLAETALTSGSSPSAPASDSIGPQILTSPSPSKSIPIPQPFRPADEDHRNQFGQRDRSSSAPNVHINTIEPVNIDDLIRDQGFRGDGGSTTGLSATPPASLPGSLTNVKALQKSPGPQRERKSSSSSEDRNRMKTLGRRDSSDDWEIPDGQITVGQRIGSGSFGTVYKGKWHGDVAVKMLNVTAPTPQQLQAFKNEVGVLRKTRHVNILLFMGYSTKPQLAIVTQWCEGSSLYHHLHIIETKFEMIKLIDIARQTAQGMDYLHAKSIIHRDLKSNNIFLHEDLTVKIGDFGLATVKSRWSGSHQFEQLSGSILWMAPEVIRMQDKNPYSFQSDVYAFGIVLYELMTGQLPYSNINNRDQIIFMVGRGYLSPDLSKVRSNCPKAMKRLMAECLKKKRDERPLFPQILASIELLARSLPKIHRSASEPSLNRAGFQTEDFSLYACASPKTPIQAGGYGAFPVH
Experiment [4] deals with 392 wild-type human kinases. The experiment can be described thus: KINOMEscan assay panel, PKIS2 profiling. To be noted: 1 μM. Type of experiment: binding. From the text:
Since the assay was only run in singlicate it was important to follow up actives with Kd determinations.

For experiment [5], the target named is BIKE (Homo sapiens, UniProt Q9NSY1). The experiment can be described thus: KINOMEscan competition binding. The note with it: read-out: %Inh BIKE.
Sequence of BIKE (Q9NSY1 whole entry): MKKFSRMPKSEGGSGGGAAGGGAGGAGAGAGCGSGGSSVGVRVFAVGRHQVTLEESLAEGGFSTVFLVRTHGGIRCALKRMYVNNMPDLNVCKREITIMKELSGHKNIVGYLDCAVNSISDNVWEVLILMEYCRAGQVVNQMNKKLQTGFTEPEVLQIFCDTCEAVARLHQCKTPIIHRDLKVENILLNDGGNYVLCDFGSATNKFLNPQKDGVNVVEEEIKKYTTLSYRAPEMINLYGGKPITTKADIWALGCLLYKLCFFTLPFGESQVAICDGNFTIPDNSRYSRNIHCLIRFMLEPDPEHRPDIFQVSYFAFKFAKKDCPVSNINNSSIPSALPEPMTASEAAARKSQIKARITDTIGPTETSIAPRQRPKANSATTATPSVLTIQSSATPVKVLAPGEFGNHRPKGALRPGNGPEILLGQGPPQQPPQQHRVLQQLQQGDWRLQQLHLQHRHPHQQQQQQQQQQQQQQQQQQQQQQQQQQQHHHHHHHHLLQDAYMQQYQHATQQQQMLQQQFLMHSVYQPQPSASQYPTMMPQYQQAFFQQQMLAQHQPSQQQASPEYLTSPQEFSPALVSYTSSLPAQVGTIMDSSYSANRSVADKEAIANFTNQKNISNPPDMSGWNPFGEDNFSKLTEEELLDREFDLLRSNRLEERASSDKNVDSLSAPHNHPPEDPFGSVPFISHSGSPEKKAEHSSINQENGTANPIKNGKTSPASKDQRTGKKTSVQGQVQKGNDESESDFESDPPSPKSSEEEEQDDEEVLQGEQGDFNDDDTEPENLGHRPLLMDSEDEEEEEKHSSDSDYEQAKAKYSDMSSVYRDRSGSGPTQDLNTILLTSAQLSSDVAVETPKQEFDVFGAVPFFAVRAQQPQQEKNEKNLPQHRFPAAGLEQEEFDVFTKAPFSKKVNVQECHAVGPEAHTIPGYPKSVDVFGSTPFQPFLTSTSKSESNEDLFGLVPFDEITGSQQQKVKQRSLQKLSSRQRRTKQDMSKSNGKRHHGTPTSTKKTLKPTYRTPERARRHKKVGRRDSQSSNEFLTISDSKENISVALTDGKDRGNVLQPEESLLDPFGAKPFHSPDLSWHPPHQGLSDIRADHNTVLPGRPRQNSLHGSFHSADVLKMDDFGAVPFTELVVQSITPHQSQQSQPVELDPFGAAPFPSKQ
Experiment [6] has as its target CAMK2B (Homo sapiens, UniProt Q13554). The experiment can be described thus: KINOMEscan competition binding. To be noted: read-out: %Inh CAMK2B.
Experiment [7] addresses DDR1 (Homo sapiens, UniProt Q08345). Kind of experiment: KINOMEscan competition binding. To be noted: read-out: %Inh DDR1.
For experiment [8], the target named is ERK5 (Homo sapiens, UniProt Q13164). The experiment can be described thus: KINOMEscan competition binding. The note with it: read-out: %Inh ERK5.
Experiment [9] has as its target ERN1 (Homo sapiens, UniProt O75460). Kind of experiment: KINOMEscan competition binding. To be noted: read-out: %Inh ERN1.
Experiment [10] concerns the target BRK (Homo sapiens, UniProt Q13882). The experiment can be described thus: KINOMEscan competition binding. The note with it: read-out: %Inh BRK.
The target of experiment [11] is CSF1R (Homo sapiens, UniProt P07333). Kind of experiment: KINOMEscan competition binding. The note with it: read-out: %Inh CSF1R.
Experiment [12] concerns the target T1, IRAK3 (Homo sapiens, UniProt Q9Y616).
T1 sequence (Q9Y616 1-596): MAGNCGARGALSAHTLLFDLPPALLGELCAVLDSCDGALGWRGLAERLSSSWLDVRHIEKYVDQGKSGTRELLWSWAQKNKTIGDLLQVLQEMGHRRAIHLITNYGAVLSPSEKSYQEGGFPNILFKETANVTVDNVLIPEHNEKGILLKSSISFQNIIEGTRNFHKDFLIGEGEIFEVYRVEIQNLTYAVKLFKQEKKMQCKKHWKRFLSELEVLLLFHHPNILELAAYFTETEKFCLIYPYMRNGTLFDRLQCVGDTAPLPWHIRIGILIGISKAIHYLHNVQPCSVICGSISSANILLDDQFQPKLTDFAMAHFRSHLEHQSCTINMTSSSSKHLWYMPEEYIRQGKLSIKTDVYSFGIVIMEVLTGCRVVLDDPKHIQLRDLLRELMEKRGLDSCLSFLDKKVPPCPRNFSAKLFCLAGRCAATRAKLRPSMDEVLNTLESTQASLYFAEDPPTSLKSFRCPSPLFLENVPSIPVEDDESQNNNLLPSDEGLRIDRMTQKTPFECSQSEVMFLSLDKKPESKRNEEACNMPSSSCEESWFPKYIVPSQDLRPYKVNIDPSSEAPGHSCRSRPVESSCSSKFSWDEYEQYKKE
Kind of experiment: KINOMEscan competition binding. To be noted: read-out: %Inh IRAK3.

Experiment [13] deals with T2, GCN2(Kin.Dom.2,S808G) (Homo sapiens, UniProt Q9P2K8, S808G).
T2 sequence (Q9P2K8 590-1001 S808G limits assumed): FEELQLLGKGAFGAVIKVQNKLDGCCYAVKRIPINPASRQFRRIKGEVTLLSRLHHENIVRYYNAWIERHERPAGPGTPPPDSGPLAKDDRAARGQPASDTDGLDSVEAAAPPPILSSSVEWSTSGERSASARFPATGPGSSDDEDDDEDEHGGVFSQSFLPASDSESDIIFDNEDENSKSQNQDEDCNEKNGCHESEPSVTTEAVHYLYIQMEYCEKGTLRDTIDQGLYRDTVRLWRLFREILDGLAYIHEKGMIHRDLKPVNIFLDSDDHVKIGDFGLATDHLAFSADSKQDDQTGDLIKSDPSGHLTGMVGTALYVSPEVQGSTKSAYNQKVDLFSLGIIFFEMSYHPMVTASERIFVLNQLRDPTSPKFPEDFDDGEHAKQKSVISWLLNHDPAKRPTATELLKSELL
The experiment can be described thus: KINOMEscan competition binding. To be noted: read-out: %Inh GCN2(Kin.Dom.2,S808G).

Experiment [14] has as its target CDK4-cyclinD1 (Homo sapiens, UniProt P11802). Kind of experiment: KINOMEscan competition binding. The note with it: read-out: %Inh CDK4-cyclinD1.
Experiment [15] addresses AAK1 (Homo sapiens, UniProt Q2M2I8). Kind of experiment: KINOMEscan competition binding. The note with it: read-out: %Inh AAK1.
Experiment [16] has as its target T3, BMX (Homo sapiens, UniProt P51813).
T3 sequence (P51813 1-675): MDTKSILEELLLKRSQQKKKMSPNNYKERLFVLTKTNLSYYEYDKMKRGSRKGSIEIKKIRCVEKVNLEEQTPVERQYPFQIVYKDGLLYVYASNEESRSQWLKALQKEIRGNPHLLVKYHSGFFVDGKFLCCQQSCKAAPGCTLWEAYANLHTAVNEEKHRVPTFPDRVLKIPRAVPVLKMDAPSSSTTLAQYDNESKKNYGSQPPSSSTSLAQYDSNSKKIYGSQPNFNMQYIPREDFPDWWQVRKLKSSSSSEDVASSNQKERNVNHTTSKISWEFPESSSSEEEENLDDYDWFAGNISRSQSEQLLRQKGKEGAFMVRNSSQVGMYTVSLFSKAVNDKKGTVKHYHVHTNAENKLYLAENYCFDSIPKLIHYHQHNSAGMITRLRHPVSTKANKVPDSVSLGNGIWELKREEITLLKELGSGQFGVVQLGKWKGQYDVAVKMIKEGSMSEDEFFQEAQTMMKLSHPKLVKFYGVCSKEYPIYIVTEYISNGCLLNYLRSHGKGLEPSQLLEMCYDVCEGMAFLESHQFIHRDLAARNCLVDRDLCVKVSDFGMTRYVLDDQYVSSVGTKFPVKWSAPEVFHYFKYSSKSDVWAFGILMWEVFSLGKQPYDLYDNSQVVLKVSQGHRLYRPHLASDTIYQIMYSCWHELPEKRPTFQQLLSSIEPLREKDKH
The experiment can be described thus: KINOMEscan competition binding. The note with it: read-out: %Inh BMX.

Sequence of CDK4-cyclinD1 (P11802 whole entry): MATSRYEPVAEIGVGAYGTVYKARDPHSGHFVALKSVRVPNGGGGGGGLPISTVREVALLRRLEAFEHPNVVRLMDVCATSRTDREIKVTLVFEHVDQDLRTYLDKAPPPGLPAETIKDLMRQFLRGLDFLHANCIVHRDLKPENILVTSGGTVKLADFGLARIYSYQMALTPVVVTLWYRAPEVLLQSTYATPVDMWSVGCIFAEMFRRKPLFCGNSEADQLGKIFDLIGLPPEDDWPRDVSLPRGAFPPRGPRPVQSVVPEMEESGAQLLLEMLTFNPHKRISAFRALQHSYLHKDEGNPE
Sequence of CDK4-cyclinD1 (P24385 whole entry partner): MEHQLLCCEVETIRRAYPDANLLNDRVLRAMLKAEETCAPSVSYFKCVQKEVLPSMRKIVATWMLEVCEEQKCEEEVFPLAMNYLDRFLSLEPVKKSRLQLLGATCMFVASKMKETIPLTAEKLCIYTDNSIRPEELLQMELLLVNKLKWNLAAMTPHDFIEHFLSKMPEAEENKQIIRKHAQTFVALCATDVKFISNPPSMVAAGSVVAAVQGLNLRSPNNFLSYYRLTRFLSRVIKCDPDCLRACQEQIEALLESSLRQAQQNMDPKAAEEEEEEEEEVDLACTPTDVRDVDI
Sequence of ERN1 (O75460 19-977): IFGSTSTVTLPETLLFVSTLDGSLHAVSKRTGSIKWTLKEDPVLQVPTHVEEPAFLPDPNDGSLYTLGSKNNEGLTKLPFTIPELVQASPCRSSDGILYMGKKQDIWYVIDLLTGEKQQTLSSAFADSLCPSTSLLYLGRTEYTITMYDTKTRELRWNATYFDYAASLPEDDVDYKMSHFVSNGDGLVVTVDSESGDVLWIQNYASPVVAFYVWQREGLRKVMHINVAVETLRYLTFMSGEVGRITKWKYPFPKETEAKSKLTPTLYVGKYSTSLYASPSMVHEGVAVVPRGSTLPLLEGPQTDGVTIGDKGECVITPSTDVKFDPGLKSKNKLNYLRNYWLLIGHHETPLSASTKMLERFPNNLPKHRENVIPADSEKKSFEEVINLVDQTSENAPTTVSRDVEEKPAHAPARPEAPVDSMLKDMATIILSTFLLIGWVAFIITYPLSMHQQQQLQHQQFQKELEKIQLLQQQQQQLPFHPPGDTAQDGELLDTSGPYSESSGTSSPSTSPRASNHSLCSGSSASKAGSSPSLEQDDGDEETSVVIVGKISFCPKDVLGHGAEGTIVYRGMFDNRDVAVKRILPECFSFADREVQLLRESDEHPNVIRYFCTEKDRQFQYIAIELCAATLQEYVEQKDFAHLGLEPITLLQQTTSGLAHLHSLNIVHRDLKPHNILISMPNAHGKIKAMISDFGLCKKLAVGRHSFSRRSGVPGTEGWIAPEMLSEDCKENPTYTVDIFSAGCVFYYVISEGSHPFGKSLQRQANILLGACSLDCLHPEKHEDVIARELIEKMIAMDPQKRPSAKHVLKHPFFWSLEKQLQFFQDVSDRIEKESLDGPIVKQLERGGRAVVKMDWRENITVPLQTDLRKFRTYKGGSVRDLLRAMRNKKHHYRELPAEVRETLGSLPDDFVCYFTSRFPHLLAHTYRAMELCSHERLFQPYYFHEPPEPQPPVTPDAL
Sequence of CAMK2B (Q13554 whole entry): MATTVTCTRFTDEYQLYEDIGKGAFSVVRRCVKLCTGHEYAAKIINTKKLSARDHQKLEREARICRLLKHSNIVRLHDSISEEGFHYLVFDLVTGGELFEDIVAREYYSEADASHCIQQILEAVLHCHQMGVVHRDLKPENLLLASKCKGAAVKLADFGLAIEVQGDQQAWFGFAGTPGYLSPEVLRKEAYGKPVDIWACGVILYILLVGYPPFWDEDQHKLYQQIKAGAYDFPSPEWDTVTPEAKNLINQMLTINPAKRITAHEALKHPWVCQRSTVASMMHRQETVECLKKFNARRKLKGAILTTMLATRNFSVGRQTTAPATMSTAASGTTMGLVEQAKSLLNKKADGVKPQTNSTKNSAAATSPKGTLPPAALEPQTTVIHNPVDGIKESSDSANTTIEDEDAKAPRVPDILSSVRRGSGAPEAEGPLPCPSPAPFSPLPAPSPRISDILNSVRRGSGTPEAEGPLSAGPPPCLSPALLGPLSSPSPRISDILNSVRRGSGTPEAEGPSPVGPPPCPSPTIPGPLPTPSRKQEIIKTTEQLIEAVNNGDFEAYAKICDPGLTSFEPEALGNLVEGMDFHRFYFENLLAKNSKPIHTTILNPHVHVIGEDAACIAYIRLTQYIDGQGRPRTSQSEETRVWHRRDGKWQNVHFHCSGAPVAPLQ
Sequence of DDR1 (Q08345 19-913): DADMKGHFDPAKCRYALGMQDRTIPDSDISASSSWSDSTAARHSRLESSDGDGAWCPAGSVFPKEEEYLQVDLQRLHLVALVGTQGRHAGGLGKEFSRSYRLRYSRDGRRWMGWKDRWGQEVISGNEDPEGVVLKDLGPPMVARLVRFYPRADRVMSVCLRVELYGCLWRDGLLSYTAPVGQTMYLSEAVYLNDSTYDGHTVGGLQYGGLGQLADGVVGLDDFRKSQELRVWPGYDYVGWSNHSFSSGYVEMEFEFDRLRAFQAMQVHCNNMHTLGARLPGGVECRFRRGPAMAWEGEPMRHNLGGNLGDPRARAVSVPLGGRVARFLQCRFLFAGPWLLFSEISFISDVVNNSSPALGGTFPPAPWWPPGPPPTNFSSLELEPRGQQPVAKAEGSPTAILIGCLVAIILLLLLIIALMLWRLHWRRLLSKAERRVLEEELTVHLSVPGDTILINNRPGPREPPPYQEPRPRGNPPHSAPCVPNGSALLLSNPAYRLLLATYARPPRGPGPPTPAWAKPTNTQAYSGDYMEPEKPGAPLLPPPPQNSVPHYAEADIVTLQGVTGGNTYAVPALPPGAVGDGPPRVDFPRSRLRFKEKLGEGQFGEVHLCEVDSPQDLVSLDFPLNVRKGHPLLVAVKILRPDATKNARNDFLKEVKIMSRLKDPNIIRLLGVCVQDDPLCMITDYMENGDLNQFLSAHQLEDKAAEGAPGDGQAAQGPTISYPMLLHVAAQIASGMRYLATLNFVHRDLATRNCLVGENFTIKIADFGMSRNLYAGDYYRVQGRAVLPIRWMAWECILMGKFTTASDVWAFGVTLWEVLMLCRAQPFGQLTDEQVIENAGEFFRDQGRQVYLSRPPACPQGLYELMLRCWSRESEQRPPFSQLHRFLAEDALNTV

For the molecule `COc1cccc(OC)c1C(=O)Nc1cccc(-c2nn3ccccc3c2-c2ccnc(Nc3cccc(F)c3)n2)c1` [UNC10225310A], the inhibition at 1 µM in [1] came to 25%; in experiment [2] it was 0%; in experiment [3], 17%; in [5], 0%; in experiment [6], 6%; in experiment [7], 99.3%. Moreover, the inhibition at 1 µM amounted to 2% in [8]; 10% in experiment [9]; 19% in experiment [10]; 60% in experiment [11]; 0% in experiment [12]; 0% in experiment [13]. Besides, the figures for the inhibition at 1 µM in experiment [14], in [15] and in experiment [16] were 0%, 0% and 21%, respectively. In addition, the “>70 (number of kinases with %Inh >70)” value in experiment [4] is recorded as 19. Besides, in experiment [4], the “>80 (number of kinases with %Inh >80)” value is recorded as 19. The “>90 (number of kinases with %Inh >90)” value in [4] is listed as 12.
For the molecule `O=c1cc(N2CCOCC2)nc2n(Cc3cccc(Cl)c3Cl)c(C3CC3)nn12` [UNC10225469A], the inhibition at 1 µM in [1] worked out at 0%; in experiment [2], 16%; in experiment [3] it was 0%; in experiment [5], 0%; in experiment [6], 10%; in experiment [7], 21%. Moreover, the inhibition at 1 µM in experiment [8], in experiment [9], in [10], in experiment [11], in [12] and in experiment [13] was 0% each time. In addition, the inhibition at 1 µM in experiment [14] came to 0%; in experiment [15] it was 14%; in experiment [16], 19%. Besides, in [4], the “>70 (number of kinases with %Inh >70)” value worked out at 3. Moreover, in [4], the “>80 (number of kinases with %Inh >80)” value worked out at 3. In addition, the “>90 (number of kinases with %Inh >90)” value in experiment [4] amounted to 2.
Take `Cn1cc(-c2cnc(N)c3c(-c4ccc5c(c4)CCN5C(=O)Cc4ccccc4)csc23)cn1` [UNC10225012A]: the inhibition at 1 µM in experiment [1] is 21%; in [2], 0%; in [3], 0%; in [5], 0%; in [6], 12%; in [7] it was 97.7%. Moreover, the inhibition at 1 µM in experiment [8] is 15%; in [9] it was 28%; in experiment [10] it was 92.2%; in experiment [11], 99.9%; in experiment [12] it was 5%; in experiment [13], 91.2%. Moreover, the values for the inhibition at 1 µM in [14], in experiment [15] and in experiment [16] were 0%, 0% and 57%, respectively. Also, the “>70 (number of kinases with %Inh >70)” value in [4] is given as 42. The “>80 (number of kinases with %Inh >80)” value in [4] is 36. Also, in [4], the “>90 (number of kinases with %Inh >90)” value is 27.
As for `CS(=O)(=O)Cc1ccc(Nc2nccc(-c3c(-c4cccc(NC(=O)C5CCCCC5)c4)nn4ncccc34)n2)cc1` [UNC10225159A], the inhibition at 1 µM in [1] is 7%; in [2], 17%; in [3] it was 20%; in experiment [5], 1%; in experiment [6], 8%; in experiment [7] it was 96.6%. The inhibition at 1 µM came out at 0% in experiment [8]; 33% in experiment [9]; 2% in experiment [10]; 79% in [11]; 3% in experiment [12]; 0% in experiment [13]. For the same molecule, the inhibition at 1 µM amounted to 15% in experiment [14], 0% in [15] and 37% in experiment [16]. The “>70 (number of kinases with %Inh >70)” value in experiment [4] was 12. Besides, the “>80 (number of kinases with %Inh >80)” value in experiment [4] came to 10. The “>90 (number of kinases with %Inh >90)” value in experiment [4] was found to be 5.
Consider `Cc1ccc(NC(=O)Nc2cccc(C(F)(F)F)c2)cc1` [UNC10225187A], for which the inhibition at 1 µM came to 0% in [1]; 1% in experiment [2]; 0% in experiment [3]; 4% in [5]; 25% in [6]; 43% in experiment [7]. In addition, the inhibition at 1 µM in [8] was 5%; in experiment [9] it was 0%; in [10], 0%; in experiment [11], 0%; in experiment [12] it was 100%; in experiment [13], 0%. Moreover, the inhibition at 1 µM was 0% in experiment [14], 26% in experiment [15] and 0% in experiment [16]. Besides, the “>70 (number of kinases with %Inh >70)” value in [4] is listed as 4. Besides, in experiment [4], the “>80 (number of kinases with %Inh >80)” value is 4. Moreover, in experiment [4], the “>90 (number of kinases with %Inh >90)” value is on record as 3.
